Test results taken from PubChem BioAssay (NCI).
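In this assay, cells in 96-well plates receive the compound at five concentrations for 48 hours. Endpoints are linearly interpolated between the surrounding concentrations. GI50: concentration for 50% inhibition of growth. TGI denotes the concentration required for complete inhibition of growth.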

Tests used:
Test in all cases: NCI tumour cell line growth inhibition, 48 h
[1] = test system: 786-0 renal
[2] = test system: COLO 205 colon
[3] = test system: MCF7 breast
[4] = test system: MDA-MB-231 breast
[5] = test system: MDA-MB-435
[6] = test system: RXF 393 renal
[7] = test system: SK-MEL-28 melanoma
[8] = test system: SK-OV-3 ovarian
[9] = test system: NCI-H522 lung
[10] = test system: OVCAR-5 ovarian

Row | SMILES | TGI [1] [µM] | TGI [2] [µM] | TGI [3] [µM] | TGI [4] [µM] | TGI [5] [µM] | TGI [6] [µM] | TGI [7] [µM] | TGI [8] [µM] | TGI [9] [µM] | TGI [10] [µM] | GI50 [2] [µM] | GI50 [4] [µM] | GI50 [5] [µM] | GI50 [9] [µM] | GI50 [10] [µM] | GI50 [6] [µM] | GI50 [7] [µM] | GI50 [8] [µM]
1 | O=C(c1cc2ccccc2cc1O)N1CCCCC1 | > 100 | > 100 | > 100 | > 100 | > 100 | > 100 | > 100 | > 100 | – | – | – | – | – | – | – | – | – | –
2 | CN(C)CCCN1C(=S)N(CCCN(C)C)c2c3cc(O)ccc3nc3c([N+](=O)[O-])ccc1c23 | 8.55 | 15.9 | 6.77 | 25.5 | 15.3 | 15.1 | 10.8 | 17.2 | 9.93 | 28.5 | – | – | – | – | – | – | – | –
3 | COCOc1ccc(Cn2c(=O)n(C)c(=O)c3c2ncn3C)cc1[N+](=O)[O-] | > 100 | > 100 | – | – | – | > 100 | > 100 | > 100 | > 100 | – | – | – | – | – | – | – | – | –
4 | O=C(NC(Cc1ccc(I)cc1)C(=O)O)c1ccc(I)cc1 (configuration not stated) | – | > 100 | > 100 | – | – | > 100 | > 100 | > 100 | > 100 | > 100 | – | – | – | – | – | – | – | –
5 | O=C(/C=C/c1ccsc1)c1ccsc1 | 47.4 | 52.8 | 32.4 | 42.4 | 42.4 | – | 89.3 | > 100 | – | – | – | – | – | – | – | – | – | –
6 | Cc1c(S(=O)(=O)/N=C(\N)Nc2ccc(Cl)cc2)sc2ccc(Cl)cc12 | 33.7 | 45.9 | 35.8 | 32.9 | – | > 100 | 48.5 | 86.8 | 30.1 | 38.1 | – | – | – | – | – | – | – | –
7 | O=C(N=Nc1cc(Cl)ccc1Cl)NNc1cc(Cl)ccc1Cl | – | 41.1 | 36.4 | 40.1 | 30 | 25 | 61.2 | 63 | 29.9 | 39.8 | – | – | – | – | – | – | – | –
8 | Cc1ccccc1C(O)(c1nccn1C)c1nccn1C | > 100 | > 100 | > 100 | – | > 100 | > 100 | > 100 | > 100 | > 100 | > 100 | – | – | – | – | – | – | – | –
9 | CN(C)Cc1cc(C(=O)/C=C/c2ccc(O)cc2)cc(CN(C)C)c1O | > 100 | 33.9 | > 100 | 79 | > 100 | > 100 | > 100 | – | 75.6 | > 100 | – | – | – | – | – | – | – | –
10 | COc1ccc2cc(-c3ccc(-c4ccc(C(=N)N)s4)s3)ccc2c1 | – | 4.24 | – | 5.42 | 4.48 | 23.2 | 6.04 | 33.2 | 4.57 | 4.18 | 2.04 | 2.46 | 2.01 | 1.92 | 2.11 | 7.22 | 2.5 | 17.9
11 | COc1ccc2nc3cc(Cl)ccc3c(NCCCNCCCNc3c4ccc(Cl)cc4nc4ccc(OC)cc34)c2c1 | – | 0.158 | 0.157 | 0.0555 | – | 0.453 | – | 0.384 | 0.114 | 0.237 | – | – | – | – | – | – | – | –
